In paper PMC10298512, “Synthesis and Anticancer Evaluation of Novel 7-Aza-Coumarine-3-Carboxamides” (International Journal of Molecular Sciences, 2023):
Like-named read-outs stand apart in the source and are kept apart here.

What was measured:
[1] = test system: M-HeLa; assay: MTT cytotoxicity test, M-HeLa cells; assay type: cell-based, human; settings: 24 h incubation, tested at 1–100 µM, three independent experiments, read-out: IC50 (µM) Cancer Cell Lines M-HeLa
[2] = test system: HuTu 80; assay: MTT cytotoxicity test, HuTu 80 cells; assay type: cell-based, human; settings: for IC50: MTT test, 24 h incubation, tested at 1–100 µM, three independent experiments, read-out: IC50 (µM) Cancer Cell Lines HuTu 80; for selectivity index, SI = IC50(Chang liver)/IC50(HuTu 80): normal Chang liver vs HuTu 80
[3] = test system: Chang liver; assay: MTT cytotoxicity test, normal Chang liver cells; assay type: cell-based, human; settings: 24 h incubation, tested at 1–100 µM, three independent experiments, read-out: IC50 (µM) Normal Cell Lines Chang Liver

Cc1ncc(CCl)c2cc(C(=O)NNC(=O)c3ccccc3)c(=O)oc12 [7m, N′-Benzoyl-5-(chloromethyl)-8-methyl-2-oxo-2H-pyrano[2,3-c]pyridine-3-carbohydrazide]
melting point: 240 °C (dec.) | IC50 ([1]; Homo sapiens, M-HeLa): 61.1 ± 4.2 µM | IC50 ([2]; Homo sapiens, HuTu80): 49.7 ± 3.5 µM | IC50 ([3]; Homo sapiens, Chang liver): 62.4 ± 4.9 µM

O=c1[nH]cc(F)c(=O)[nH]1 [5-fluorouracil, reference compound]
IC50 ([1]; Homo sapiens, M-HeLa): 62 ± 4.7 µM | IC50 ([2]; Homo sapiens, HuTu80): 65.2 ± 5.4 µM | IC50 ([3]; Homo sapiens, Chang liver): 86.3 ± 6.5 µM

Cc1ncc(CO)c2c1OC1=C(C(=O)CC(C)(C)C1)C2C1=C(O)CC(C)(C)CC1=O (stereo not shown) [compound 4, 5-(2-hydroxy-4,4-dimethyl-6-oxocyclohex-1-en-1-yl)-4-(hydroxymethyl)-1,8,8-trimethyl-5,7,8,9-tetrahydro-6H-chromeno[2,3-c]pyridin-6-one]
melting point: 219 to 224 °C

Cc1cc(C)nc(NS(=O)(=O)c2ccc(NC(=O)c3cc4c(CCl)cnc(C)c4oc3=O)cc2)n1 [7l, 5-(Chloromethyl)-N-(4-(N-(4,6-dimethylpyrimidin-2-yl)sulfamoyl)phenyl)-8-methyl-2-oxo-2H-pyrano[2,3-c]pyridine-3-carboxamide]
melting point: > 300 °C | IC50 ([1]; Homo sapiens, M-HeLa): 62.4 ± 4.4 µM | IC50 ([2]; Homo sapiens, HuTu80): 52.1 ± 3.4 µM | IC50 ([3]; Homo sapiens, Chang liver): 126 ± 8.8 µM

Cc1ncc(CCl)c2cc(C(=O)Nc3cccc(S(=O)(=O)c4cccc(NC(=O)c5cc6c(CCl)cnc(C)c6oc5=O)c4)c3)c(=O)oc12 [7s, N,N′-(Sulfonylbis(3,1-phenylene))bis(5-(chloromethyl)-8-methyl-2-oxo-2H-pyrano[2,3-c]pyridine-3-carboxamide)]
melting point: > 300 °C | IC50 ([1]; Homo sapiens, M-HeLa): 80 ± 5.7 µM | IC50 ([2]; Homo sapiens, HuTu80): 13.8 ± 1.1 µM | selectivity index, SI = IC50(Chang liver)/IC50(HuTu 80) [2]: 9 | IC50 ([3]; Homo sapiens, Chang liver): 125 ± 11 µM

Cc1ncc(CCl)c2cc(C(=O)Nc3cccc(NC(=O)c4cc5c(CCl)cnc(C)c5oc4=O)c3)c(=O)oc12 [7p, N,N′-(1,3-Phenylene)bis(5-(chloromethyl)-8-methyl-2-oxo-2H-pyrano[2,3-c]pyridine-3-carboxamide)]
melting point: 274 °C (dec.) | IC50 ([1]; Homo sapiens, M-HeLa): 63 ± 4.4 µM | IC50 ([2]; Homo sapiens, HuTu80): 81.5 ± 5.7 µM | IC50 ([3]; Homo sapiens, Chang liver): 37 ± 2.6 µM

Cc1ncc(CCl)c2cc(C(=O)NNC(=O)c3ccncc3)c(=O)oc12 [7n, 5-(Chloromethyl)-N′-isonicotinoyl-8-methyl-2-oxo-2H-pyrano[2,3-c]pyridine-3-carbohydrazide]
melting point: > 300 °C | IC50 ([1]; Homo sapiens, M-HeLa): 93.1 ± 6.6 µM | IC50 ([2]; Homo sapiens, HuTu80): 61.2 ± 4.2 µM | IC50 ([3]; Homo sapiens, Chang liver): 64.1 ± 4.8 µM

Cc1ncc(COP(=O)(O)O)c2cc(C(=O)O)c(=O)oc12 [3b, 8-methyl-2-oxo-5-((phosphonooxy)methyl)-2H-pyrano[2,3-c]pyridin-7-ium-3-carboxylate]
melting point: > 300 °C | IC50 ([1]; Homo sapiens, M-HeLa): 70.6 ± 5.7 µM | IC50 ([2]; Homo sapiens, HuTu80): 60.5 ± 5.3 µM | IC50 ([3]; Homo sapiens, Chang liver): 70 ± 5.6 µM

Cc1ncc(CCl)c2cc(C(=O)Nc3ccc(S(=O)(=O)Nc4ncccn4)cc3)c(=O)oc12 [7j, 5-(Chloromethyl)-8-methyl-2-oxo-N-(4-(N-(pyrimidin-2-yl)sulfamoyl)phenyl)-2H-pyrano[2,3-c]pyridine-3-carboxamide]
melting point: > 300 °C | IC50 ([1]; Homo sapiens, M-HeLa): 73.4 ± 5.2 µM | IC50 ([2]; Homo sapiens, HuTu80): 32 ± 2.1 µM | IC50 ([3]; Homo sapiens, Chang liver): 73 ± 5.5 µM

COc1ccccc1NC(=O)c1cc2c(CCl)cnc(C)c2oc1=O [7b, 5-(Chloromethyl)-N-(2-methoxyphenyl)-8-methyl-2-oxo-2H-pyrano[2,3-c]pyridine-3-carboxamide]
melting point: 214 to 215 °C | IC50 ([1]; Homo sapiens, M-HeLa): 84.4 ± 5.5 µM | IC50 ([2]; Homo sapiens, HuTu80): 55.3 ± 3.9 µM | IC50 ([3]; Homo sapiens, Chang liver): 46 ± 3.2 µM

Cc1ncc(CCl)c2cc(C(=O)Nc3ccc(S(N)(=O)=O)cc3)c(=O)oc12 [7h, 5-(Chloromethyl)-8-methyl-2-oxo-N-(4-sulfamoylphenyl)-2H-pyrano[2,3-c]pyridine-3-carboxamide]
melting point: > 300 °C | IC50 ([1]; Homo sapiens, M-HeLa): 14.8 ± 1.3 µM | IC50 ([2]; Homo sapiens, HuTu80): 2.9 ± 0.2 µM | selectivity index, SI = IC50(Chang liver)/IC50(HuTu 80) [2]: 10 | IC50 ([3]; Homo sapiens, Chang liver): 29.8 ± 2 µM

Cc1ccnc(NS(=O)(=O)c2ccc(NC(=O)c3cc4c(CCl)cnc(C)c4oc3=O)cc2)n1 [7k, 5-(Chloromethyl)-8-methyl-N-(4-(N-(4-methylpyrimidin-2-yl)sulfamoyl)phenyl)-2-oxo-2H-pyrano[2,3-c]pyridine-3-carboxamide]
melting point: > 300 °C | IC50 ([1]; Homo sapiens, M-HeLa): 47 ± 3.1 µM | IC50 ([2]; Homo sapiens, HuTu80): 18.1 ± 1.4 µM | IC50 ([3]; Homo sapiens, Chang liver): 61.3 ± 4.2 µM

Cc1ncc(CCl)c2cc(C(=O)Nc3ccccc3NC(=O)c3cc4c(CCl)cnc(C)c4oc3=O)c(=O)oc12 [7o, N,N′-(1,2-Phenylene)bis(5-(chloromethyl)-8-methyl-2-oxo-2H-pyrano[2,3-c]pyridine-3-carboxamide)]
melting point: 239 to 241 °C | IC50 ([1]; Homo sapiens, M-HeLa): 22.5 ± 1.8 µM | IC50 ([2]; Homo sapiens, HuTu80): 3.1 ± 0.2 µM | selectivity index, SI = IC50(Chang liver)/IC50(HuTu 80) [2]: 3.8 | IC50 ([3]; Homo sapiens, Chang liver): 11.8 ± 0.9 µM

Cc1ncc(CO)c2cc(C(=O)O)c(=O)oc12.NC1CCCCC1 [8b, Cyclohexanaminium 5-(hydroxymethyl)-8-methyl-2-oxo-2H-pyrano[2,3-c]pyridine-3-carboxylate]
IC50 [1]: 70.4 ± 5.7 µM | IC50 [2]: 78.2 ± 6.3 µM | IC50 [3]: 81 ± 6.5 µM

Cc1ncc(COP(=O)(O)O)c2cc(C(=O)O)c(=O)oc12.Nc1ccccn1 [8e, Pyridin-2-aminium 8-methyl-2-oxo-5-((phosphonooxy)methyl)-2H-pyrano[2,3-c]pyridine-3-carboxylate]
IC50 [1]: 99.5 ± 7.1 µM | IC50 [2]: 59 ± 4.1 µM | IC50 [3]: 78.4 ± 6.3 µM

C#CCNC(=O)c1cc2c(CCl)cnc(C)c2oc1=O [7g, 5-(Chloromethyl)-8-methyl-2-oxo-N-(prop-2-yn-1-yl)-2H-pyrano[2,3-c]pyridine-3-carboxamide]
melting point: 161 °C (dec.) | IC50 ([1]; Homo sapiens, M-HeLa): 14.1 ± 1.2 µM | IC50 ([2]; Homo sapiens, HuTu80): 11.2 ± 0.9 µM | IC50 ([3]; Homo sapiens, Chang liver): 13.9 ± 0.3 µM

CC(=O)NS(=O)(=O)c1ccc(NC(=O)c2cc3c(CCl)cnc(C)c3oc2=O)cc1 [7i, N-(4-(N-Acetylsulfamoyl)phenyl)-5-(chloromethyl)-8-methyl-2-oxo-2H-pyrano[2,3-c]pyridine-3-carboxamide]
melting point: > 300 °C | IC50 ([1]; Homo sapiens, M-HeLa): 77.8 ± 5.4 µM | IC50 ([2]; Homo sapiens, HuTu80): 31 ± 1.9 µM | IC50 ([3]; Homo sapiens, Chang liver): 116 ± 8.1 µM

Cc1ncc(CCl)c2cc(C(=O)Nc3ccccn3)c(=O)oc12 [7d, 5-(Chloromethyl)-8-methyl-2-oxo-N-(pyridin-2-yl)-2H-pyrano[2,3-c]pyridine-3-carboxamide]
melting point: > 300 °C | IC50 ([1]; Homo sapiens, M-HeLa): 84 ± 5.9 µM | IC50 ([2]; Homo sapiens, HuTu80): 62 ± 4.3 µM | IC50 ([3]; Homo sapiens, Chang liver): 88 ± 6.2 µM

Cc1ncc(CO)c2cc(C(=O)O)c(=O)oc12 [3a, 5-(hydroxymethyl)-8-methyl-2-oxo-2H-pyrano[2,3-c]pyridin-7-ium-3-carboxylate]
melting point: 249 to 250 °C | IC50 ([1]; Homo sapiens, M-HeLa): 75.5 ± 6 µM | IC50 ([2]; Homo sapiens, HuTu80): 57.6 ± 4.6 µM | IC50 ([3]; Homo sapiens, Chang liver): 58 ± 4.7 µM

COc1cccc2c1C(=O)c1c(O)c3c(c(O)c1C2=O)C[C@@](O)(C(=O)CO)C[C@@H]3O[C@H]1C[C@H](N)[C@H](O)[C@H](C)O1 [Doxorubicin, reference compound]
IC50 ([1]; Homo sapiens, M-HeLa): 3 ± 0.2 µM | IC50 ([2]; Homo sapiens, HuTu80): 3 ± 0.2 µM | selectivity index, SI = IC50(Chang liver)/IC50(HuTu 80) [2]: 1 | IC50 ([3]; Homo sapiens, Chang liver): 3 ± 0.1 µM

Cc1ncc(CCl)c2cc(C(=O)Nc3ccc(NC(=O)c4cc5c(CCl)cnc(C)c5oc4=O)cc3)c(=O)oc12 [7q, N,N′-(1,4-Phenylene)bis(5-(chloromethyl)-8-methyl-2-oxo-2H-pyrano[2,3-c]pyridine-3-carboxamide)]
melting point: > 300 °C | IC50 ([1]; Homo sapiens, M-HeLa): 84.3 ± 5.9 µM | IC50 ([2]; Homo sapiens, HuTu80): 95.4 ± 6.5 µM | IC50 ([3]; Homo sapiens, Chang liver): > 100 µM

Cc1ncc(CO)c2cc(C(=O)O)c(=O)oc12.Cc1ncc(CO)c2cc(C(=O)O)c(=O)oc12.Nc1cccc(N)n1 [8d, Pyridine-2,6-diaminium 5-(hydroxymethyl)-8-methyl-2-oxo-2H-pyrano[2,3-c]pyridine-3-carboxylate]
IC50 [1]: > 100 µM | IC50 [2]: 88.4 ± 7 µM | IC50 [3]: 64.1 ± 5.1 µM

Cc1ncc(CCl)c2cc(C(=O)Nc3ccccc3)c(=O)oc12 [7a, 5-(Chloromethyl)-8-methyl-2-oxo-N-phenyl-2aH-pyrano[2,3-c]pyridine-3-carboxamide]
melting point: 240 °C (dec.) | IC50 ([1]; Homo sapiens, M-HeLa): > 100 µM | IC50 ([2]; Homo sapiens, HuTu80): 59.4 ± 4.8 µM | IC50 ([3]; Homo sapiens, Chang liver): 56.6 ± 4.5 µM

Cc1ncc(CCl)c2cc(C(=O)Nc3ccc([N+](=O)[O-])cc3Br)c(=O)oc12 [7c, N-(2-Bromo-4-nitrophenyl)-5-(chloromethyl)-8-methyl-2-oxo-2H-pyrano[2,3-c]pyridine-3-carboxamide]
melting point: 240 °C (dec.) | IC50 ([1]; Homo sapiens, M-HeLa): 67.4 ± 4.6 µM | IC50 ([2]; Homo sapiens, HuTu80): 43 ± 3.5 µM | IC50 ([3]; Homo sapiens, Chang liver): 89.4 ± 6.3 µM

Cc1ncc(CCl)c2cc(C(=O)Nc3cccnc3N)c(=O)oc12 [7e, N-(2-Aminopyridin-3-yl)-5-(chloromethyl)-8-methyl-2-oxo-2H-pyrano[2,3-c]pyridine-3-carboxamide]
melting point: > 300 °C | IC50 ([1]; Homo sapiens, M-HeLa): 54.3 ± 3.6 µM | IC50 ([2]; Homo sapiens, HuTu80): 72 ± 5.2 µM | IC50 ([3]; Homo sapiens, Chang liver): 55.3 ± 3.7 µM

Cc1ncc(CCl)c2cc(C(=O)N(c3ccccc3)c3ccccc3)c(=O)oc12.Cl [7f, 5-(Chloromethyl)-3-(diphenylcarbamoyl)-8-methyl-2-oxo-2H-pyrano[2,3-c]pyridin-7-ium chloride]
melting point: 201 to 205 °C | IC50 ([1]; Homo sapiens, M-HeLa): 32 ± 2.2 µM | IC50 ([2]; Homo sapiens, HuTu80): 17.4 ± 1.3 µM | IC50 ([3]; Homo sapiens, Chang liver): 48.4 ± 3.3 µM
